Source: patent US9211252B2, “Increased drug loading capacity of polymeric material” (Medtronic, Inc., priority 2007, dated 2015)
“Also recorded” adds a separate entry of the source. Read-outs that look alike come from different tables or passages of the source. Values belong to the compound of their own block, whether it stands above or below them.

Tests used:
[1] = Loading of minocycline and rifampin into pre-extracted and non-extracted silicone boots; assay type: physicochemical; details: for drug concentration in polymer: loading 1 hour in butyl acetate:methanol 85:15
Description: Molded, cured silicone (Dow-Q7 4850) boots designed to fit snuggly around Restore® implantable neurostimulators (Medtroinc, Inc.) were placed in a concentrated drug loading solution containing rifampin (30 mg/ml) and minocycline (15 mg/ml) in butyl acetate:methanol (85:15, by volume). The polymer was allowed to swell in this solution for one hour, rinsed and then dried overnight.
The efficiency of various solvents to extract material from cured silicone was tracked by determining the weight loss post-extraction. […] It was initially assumed that subjecting the polymer to drug loading should fulfill the same function as pre-extracting the material prior to drug loading.
One thought was that the existence of extractables in the loading solution might increase the solubility of the drugs in solution compared to solubility in the silicone, thus lowering the partitioning of drug into the silicone. Eight non-extracted silicone boots and 10 pre-extracted boots were drug loaded in separate loading solutions. Two additional pre-extracted silicone boots were then loaded in the formulation used to load the non-extracted boots. According to the hypothesis, the loading solution used for the non-extracted boots would theoretically contain higher levels of silicone extractables, and result in lower loading of the pre-extracted boots.

[2] = Solvent swelling of silicone boots; assay type: physicochemical; details: silicone boots placed in solvent for 2 hours; solvent ratios by volume
Description: The effect of various solvents to swell (as determined by % weight increase) silicone boots was determined. Silicone boots were weighed, placed in a solvent for 2 hours, and weighed again.
The solvent ratios in Table 1 are by volume. The ability to swell silicone by 30% or more is believed to be suitable for increasing the loading capacity of silicone. The ability to swell silicone by 50% or more is believed to be more suitable for increasing the loading capacity of silicone.

[3] = for increase in drug loading, pre-extracted relative to non-extracted silicone discs: 2 hour plus 24 hour extracted; for average drug loaded into silicone discs: 24 hr loading, HPLC of 25 mL extract
Description: One sheet was removed after 2 hours; the other was removed after 24. The sheets were allowed to dry for 24 hours.
Nine 1¼ inch discs were punched from each sheet of silicone. The discs (27) were separated into 9 jars (3 per jar). Each jar contained a drug loading solution. Three jars contained clonidine, three contained dexamethasone and three contained sulindac.
After stirring 24 hrs in solution, all the samples were removed, rinsed twice for approximately 10 seconds in a sufficient volume of methanol and allowed to dry overnight in open air on a drying rack. The samples were then stored until extraction in jars in a nitrogen purged foil bag.
Each sample was cut in half, and the half sample was weighed. Initially only the clonidine and sulindac samples were analyzed.
All samples were extracted in THF/ethanol 4:1 (15 mL) for 30 min; then re-extracted in THF/ethanol 4:1 (10 mL) for 20 min. The first and second extracts were combined in a volumetric flask and any additional volume was added to make exactly 25 mL of solution. These samples were stored in at 4° C. until analysis.
HPLC Analysis was performed using an Agilent 1100 stack. For dexamethasone, isocratic separation using acetonytrile:water (45:55) was performed. A Zorbax SB-Phenyl, 5 μm, 4.6×150 mm, column (Agilent Technologies, Inc.) was used at a column temperature of 30° C. The flow rate was 10 mL/min, with a run time of 15 minutes. Dexamethasone was detected by UV at 245 nm.
For sulindac, isocratic separation using 0.1% phosphoric acid in acetonitrile:water (38:62) was performed. A PRONTOSIL 120-5-C18-ace-EPS, 5 μm, 4.6×150 mm, column was used at a column temperature of 37° C. The autosampler temperature was 15° C. The flow rate was 1.0 mL/min, with a run time of 35 min. Sulindac was detected by UV at 285 nm. Injection volumes were 10-50 μL.
The autosample temperature was ambient temperature. Isocratic separation using a mobile phase A (MPA):mobile phase B (MPB) ratio of 52:48 was employed. MPA consisted of 2.2 gm 1-octanesulfonic acid, sodium salt for each liter of nanopure water. MPB was HPLC Grade Methanol. The flow rate was 1 mL/min, with a run time of 15 minutes. […] The injection volume was 10 μL

[4] = Solubility of drug in the loading solution; assay type: physicochemical; details: methanol/butyl acetate loading solution, extra 5 mL methanol added
[5] = not pre-extracted with butyl acetate
[6] = pre-extracted with butyl acetate for 2 hours
[7] = pre-extracted with butyl acetate for 24 hours

drug concentration in polymer ([1]; non-extracted silicone boots): 2.61 mg/g
drug concentration in polymer ([1]; silicone boots pre-extracted with butyl acetate): 3.28 mg/g
increase in drug concentration, pre-extracted vs non-extracted ([1]; silicone boots, same lot): 25.7%
Compound: CO[C@H]1/C=C/O[C@@]2(C)Oc3c(C)c(O)c4c(O)c(c(/C=N/N5CCN(C)CC5)c(O)c4c3C2=O)NC(=O)/C(C)=C\C=C\[C@H](C)[C@H](O)[C@@H](C)[C@@H](O)[C@@H](C)[C@H](OC(C)=O)[C@@H]1C [rifampin]

Compound: Cc1ccccc1 [Toluene]
% Weight Increase [2]: 85%

Compound: CC(C)=O [Acetone]
% Weight Increase [2]: 15%

% Weight Increase [2]: 62%
Compound: C1CCCC1 [Cyclopentane]

Compound: ClC(Cl)Cl [Chloroform]
% Weight Increase [2]: 166%

increase in drug loading, pre-extracted relative to non-extracted silicone discs [3]: ~19%
average drug loaded into silicone discs [3, 5]: 1.56 ± 0.03 µg/mL
average drug loaded into silicone discs [3, 6]: 1.86 ± 0.06 µg/mL
average drug loaded into silicone discs [3, 7]: 1.88 ± 0.11 µg/mL
Compound: CC1=C(CC(=O)O)c2cc(F)ccc2/C1=C\c1ccc([S+](C)[O-])cc1 (stereo not drawn) [sulindac]

Compound: C[C@@H]1C[C@H]2[C@@H]3CCC4=CC(=O)C=C[C@]4(C)[C@@]3(F)[C@@H](O)C[C@]2(C)[C@@]1(O)C(=O)CO [dexamethasone]
solubility in loading solution [4]: substantial insolubility; also recorded: did not seem to dissolve well

% Weight Increase [2]: 13%
Compound: CC(C)O [Isopropyl alcohol]

% Weight Increase [2]: 85%
Compound: C1CCCCC1 [Cyclohexane]

increase in drug loading, pre-extracted relative to non-extracted silicone discs [3]: ~6%
average drug loaded into silicone discs [3, 5]: 19.41 ± 0.20 µg/mL
average drug loaded into silicone discs [3, 6]: 20.59 ± 0.20 µg/mL
average drug loaded into silicone discs [3, 7]: 20.49 ± 0.22 µg/mL
Compound: Clc1cccc(Cl)c1N=C1NCCN1 [clonidine]

Compound: CCCCOC(C)=O [Butyl Acetate]
% Weight Increase [2]: 73%

% Weight Increase [2]: 105%
Compound: C1CCOC1 [THF]

% Weight Increase [2]: 54%
Compound: CCOC(C)=O [Ethyl acetate]
